Results published in patent US10807992B2, “Single enantiomer antiparasitic compounds” (priority 2017, dated 2020).

Legend:
Ctenocephalides felis [1] = assay: In vitro ingestion activity against fleas (artificial feeding, bovine blood); conditions: for mortality at 0.003 ppm: Trial 3, dose 0.003 ppm; for mortality at 0.012 ppm: Trial 3, dose 0.012 ppm; for mortality at 0.049 ppm: Trial 3, dose 0.049 ppm; for mortality at 0.2 ppm: Trial 3, dose 0.20 ppm; for mortality at 0.78 ppm: Trial 3, dose 0.78 ppm; for mortality at 3.125 ppm: Trial 3, dose 3.125 ppm; for mortality at 12.5 ppm: Trial 3, dose 12.5 ppm; for mortality at 50 ppm: Trial 3, dose 50 ppm
Protocol: (§1) Ctenocephalides felis (Avista Pharma, Inc., RTP, NC), 1-7days post hatch, held in an environmental chamber at 24° C., 85% humidity.
For flea ingestion tests, serial dilutions of the compound stock were performed using DMSO to achieve the desired range for EC50 and EC90 determination. An aliquot of each compound dilution was added to organic bovine blood with a final DMSO concentration of 0.5% and placed in an artificial feeding container.
(§2) Compounds tested were C1 racemate, the C1 (R) enantiomer, and the C1 (S) enantiomer. For Trial 3, the C1 (R) enantiomer and the C1 (S) enantiomer were further chiral purified to achieve >99% purity.
(§3) For both contact and ingestion assays, ten newly emerged unfed adult fleas, 0-7 days old Ctenocephalides felis, from a laboratory colony, were aspirated into each vial or cage. The test vials for contact assays were held in an environmental chamber at 24° C., 80% humidity with light/dark cycles (12 hours each). The cages for flea ingestion assays were held in a temperature-controlled artificial feeding apparatus to allow continual access to organic bovine blood containing the desired concentration of compound. Fresh aliquots of compound-spiked bovine blood were provided daily for the duration of the study.
(§4) Fleas were evaluated for percent mortality at various time points between 2 hours and 48 hours post infestation. Fleas showing normal movement and/or jumping ability were considered viable and those showing no movement after tapping the vials were scored as dead.

Ctenocephalides felis [2] = assay: In vitro contact activity against fleas (coated substrate); conditions: for mortality at 0.006 ppm: Trial 3, dose 0.006 ppm; for mortality at 0.024 ppm: Trial 3, dose 0.024 ppm; for mortality at 0.098 ppm: Trial 3, dose 0.098 ppm; for mortality at 0.39 ppm: Trial 3, dose 0.39 ppm; for mortality at 1.56 ppm: Trial 3, dose 1.56 ppm; for mortality at 6.25 ppm: Trial 3, dose 6.25 ppm; for mortality at 25 ppm: Trial 3, dose 25 ppm; for mortality at 100 ppm: Trial 3, dose 100 ppm
Protocol: as §1
For flea contact tests, vial caps were pre-drilled with a single hole in the center of each cap to allow air exchange. A filter paper (Whatman Grade 540 2.1 cm) was placed in the lid of each vial. Pipe cleaners cut to 0.5 inches were inserted in each test vial. An aliquot was taken from each compound stock and added to an acetone/triton solution to achieve the desired top concentrations for the study. Serial dilutions were conducted from the top dose (i.e. 100 ppm) to achieve the desired concentration for EC50 and EC90 determination. The final DMSO concentration was 0.5%. A 75 μL aliquot of each compound formulation was added to each 0.5 inch pipe cleaner contained in the treatment vial. The vials were loosely capped and allowed to dry for a minimum of four hours in a chemical fume hood.
as §2, §3, §4

Structure (SMILES): O=C(CC(F)(F)F)N1CC2(C1)OCc1cc(C3=NS[C@@](c4cc(Cl)c(F)c(Cl)c4)(C(F)(F)F)C3)ccc12 [C1 (S) enantiomer, (S)-1-[6-[5-(3,5-dichloro-4-fluoro-phenyl)-5-(trifluoromethyl)-4H-isothiazol-3-yl]spiro[1H-isobenzofuran-3,3′-azetidine]-1′-yl]-3,3,3-trifluoro-propan-1-one]
- mortality at 0.003 ppm (Ctenocephalides felis [1]; 6 h, Rep1): 0%
- mortality at 0.003 ppm (Ctenocephalides felis [1]; 6 h, Rep2): 0%
- mortality at 0.012 ppm (Ctenocephalides felis [1]; 6 h, Rep1): 0%
- mortality at 0.012 ppm (Ctenocephalides felis [1]; 6 h, Rep2): 0%
- mortality at 0.049 ppm (Ctenocephalides felis [1]; 6 h, Rep1): 0%
- mortality at 0.049 ppm (Ctenocephalides felis [1]; 6 h, Rep2): 0%
- mortality at 0.2 ppm (Ctenocephalides felis [1]; 6 h, Rep1): 10%
- mortality at 0.2 ppm (Ctenocephalides felis [1]; 6 h, Rep2): 20%
- mortality at 0.78 ppm (Ctenocephalides felis [1]; 6 h, Rep1): 80%
- mortality at 0.78 ppm (Ctenocephalides felis [1]; 6 h, Rep2): 70%
- mortality at 3.125 ppm (Ctenocephalides felis [1]; 6 h, Rep1): 100%
- mortality at 3.125 ppm (Ctenocephalides felis [1]; 6 h, Rep2): 60%
- mortality at 12.5 ppm (Ctenocephalides felis [1]; 6 h, Rep1): 100%
- mortality at 12.5 ppm (Ctenocephalides felis [1]; 6 h, Rep2): 100%
- mortality at 50 ppm (Ctenocephalides felis [1]; 6 h, Rep1): 100%
- mortality at 50 ppm (Ctenocephalides felis [1]; 6 h, Rep2): 100%
- mortality at 0.003 ppm (Ctenocephalides felis [1]; 24 h, Rep1): 0%
- mortality at 0.003 ppm (Ctenocephalides felis [1]; 24 h, Rep2): 0%
- mortality at 0.012 ppm (Ctenocephalides felis [1]; 24 h, Rep1): 0%
- mortality at 0.012 ppm (Ctenocephalides felis [1]; 24 h, Rep2): 0%
- mortality at 0.049 ppm (Ctenocephalides felis [1]; 24 h, Rep1): 20%
- mortality at 0.049 ppm (Ctenocephalides felis [1]; 24 h, Rep2): 10%
- mortality at 0.2 ppm (Ctenocephalides felis [1]; 24 h, Rep1): 10%
- mortality at 0.2 ppm (Ctenocephalides felis [1]; 24 h, Rep2): 50%
- mortality at 0.78 ppm (Ctenocephalides felis [1]; 24 h, Rep1): 100%
- mortality at 0.78 ppm (Ctenocephalides felis [1]; 24 h, Rep2): 90%
- mortality at 3.125 ppm (Ctenocephalides felis [1]; 24 h, Rep1): 100%
- mortality at 3.125 ppm (Ctenocephalides felis [1]; 24 h, Rep2): 80%
- mortality at 12.5 ppm (Ctenocephalides felis [1]; 24 h, Rep1): 100%
- mortality at 12.5 ppm (Ctenocephalides felis [1]; 24 h, Rep2): 100%
- mortality at 50 ppm (Ctenocephalides felis [1]; 24 h, Rep1): 100%
- mortality at 50 ppm (Ctenocephalides felis [1]; 24 h, Rep2): 100%
- mortality at 0.003 ppm (Ctenocephalides felis [1]; 48 h, Rep1): 0%
- mortality at 0.003 ppm (Ctenocephalides felis [1]; 48 h, Rep2): 0%
- mortality at 0.012 ppm (Ctenocephalides felis [1]; 48 h, Rep1): 0%
- mortality at 0.012 ppm (Ctenocephalides felis [1]; 48 h, Rep2): 0%
- mortality at 0.049 ppm (Ctenocephalides felis [1]; 48 h, Rep1): 20%
- mortality at 0.049 ppm (Ctenocephalides felis [1]; 48 h, Rep2): 20%
- mortality at 0.2 ppm (Ctenocephalides felis [1]; 48 h, Rep1): 30%
- mortality at 0.2 ppm (Ctenocephalides felis [1]; 48 h, Rep2): 70%
- mortality at 0.78 ppm (Ctenocephalides felis [1]; 48 h, Rep1): 100%
- mortality at 0.78 ppm (Ctenocephalides felis [1]; 48 h, Rep2): 90%
- mortality at 3.125 ppm (Ctenocephalides felis [1]; 48 h, Rep1): 100%
- mortality at 3.125 ppm (Ctenocephalides felis [1]; 48 h, Rep2): 100%
- mortality at 12.5 ppm (Ctenocephalides felis [1]; 48 h, Rep1): 100%
- mortality at 12.5 ppm (Ctenocephalides felis [1]; 48 h, Rep2): 100%
- mortality at 50 ppm (Ctenocephalides felis [1]; 48 h, Rep1): 100%
- mortality at 50 ppm (Ctenocephalides felis [1]; 48 h, Rep2): 100%
- mortality at 0.006 ppm (Ctenocephalides felis [2]; 6 h, Rep1): 0%
- mortality at 0.006 ppm (Ctenocephalides felis [2]; 6 h, Rep2): 0%
- mortality at 0.024 ppm (Ctenocephalides felis [2]; 6 h, Rep1): 0%
- mortality at 0.024 ppm (Ctenocephalides felis [2]; 6 h, Rep2): 0%
- mortality at 0.098 ppm (Ctenocephalides felis [2]; 6 h, Rep1): 0%
- mortality at 0.098 ppm (Ctenocephalides felis [2]; 6 h, Rep2): 0%
- mortality at 0.39 ppm (Ctenocephalides felis [2]; 6 h, Rep1): 0%
- mortality at 0.39 ppm (Ctenocephalides felis [2]; 6 h, Rep2): 0%
- mortality at 1.56 ppm (Ctenocephalides felis [2]; 6 h, Rep1): 0%
- mortality at 1.56 ppm (Ctenocephalides felis [2]; 6 h, Rep2): 0%
- mortality at 6.25 ppm (Ctenocephalides felis [2]; 6 h, Rep1): 0%
- mortality at 6.25 ppm (Ctenocephalides felis [2]; 6 h, Rep2): 0%
- mortality at 25 ppm (Ctenocephalides felis [2]; 6 h, Rep1): 0%
- mortality at 25 ppm (Ctenocephalides felis [2]; 6 h, Rep2): 0%
- mortality at 100 ppm (Ctenocephalides felis [2]; 6 h, Rep1): 0%
- mortality at 100 ppm (Ctenocephalides felis [2]; 6 h, Rep2): 0%
- mortality at 0.006 ppm (Ctenocephalides felis [2]; 24 h, Rep1): 0%
- mortality at 0.006 ppm (Ctenocephalides felis [2]; 24 h, Rep2): 0%
- mortality at 0.024 ppm (Ctenocephalides felis [2]; 24 h, Rep1): 0%
- mortality at 0.024 ppm (Ctenocephalides felis [2]; 24 h, Rep2): 0%
- mortality at 0.098 ppm (Ctenocephalides felis [2]; 24 h, Rep1): 0%
- mortality at 0.098 ppm (Ctenocephalides felis [2]; 24 h, Rep2): 0%
- mortality at 0.39 ppm (Ctenocephalides felis [2]; 24 h, Rep1): 0%
- mortality at 0.39 ppm (Ctenocephalides felis [2]; 24 h, Rep2): 0%
- mortality at 1.56 ppm (Ctenocephalides felis [2]; 24 h, Rep1): 0%
- mortality at 1.56 ppm (Ctenocephalides felis [2]; 24 h, Rep2): 0%
- mortality at 6.25 ppm (Ctenocephalides felis [2]; 24 h, Rep1): 10%
- mortality at 6.25 ppm (Ctenocephalides felis [2]; 24 h, Rep2): 10%
- mortality at 25 ppm (Ctenocephalides felis [2]; 24 h, Rep1): 30%
- mortality at 25 ppm (Ctenocephalides felis [2]; 24 h, Rep2): 20%
- mortality at 100 ppm (Ctenocephalides felis [2]; 24 h, Rep1): 100%
- mortality at 100 ppm (Ctenocephalides felis [2]; 24 h, Rep2): 100%
- mortality at 0.006 ppm (Ctenocephalides felis [2]; 48 h, Rep1): 0%
- mortality at 0.006 ppm (Ctenocephalides felis [2]; 48 h, Rep2): 0%
- mortality at 0.024 ppm (Ctenocephalides felis [2]; 48 h, Rep1): 0%
- mortality at 0.024 ppm (Ctenocephalides felis [2]; 48 h, Rep2): 0%
- mortality at 0.098 ppm (Ctenocephalides felis [2]; 48 h, Rep1): 10%
- mortality at 0.098 ppm (Ctenocephalides felis [2]; 48 h, Rep2): 10%
- mortality at 0.39 ppm (Ctenocephalides felis [2]; 48 h, Rep1): 10%
- mortality at 0.39 ppm (Ctenocephalides felis [2]; 48 h, Rep2): 0%
- mortality at 1.56 ppm (Ctenocephalides felis [2]; 48 h, Rep1): 10%
- mortality at 1.56 ppm (Ctenocephalides felis [2]; 48 h, Rep2): 30%
- mortality at 6.25 ppm (Ctenocephalides felis [2]; 48 h, Rep1): 70%
- mortality at 6.25 ppm (Ctenocephalides felis [2]; 48 h, Rep2): 30%
- mortality at 25 ppm (Ctenocephalides felis [2]; 48 h, Rep1): 100%
- mortality at 25 ppm (Ctenocephalides felis [2]; 48 h, Rep2): 100%
- mortality at 100 ppm (Ctenocephalides felis [2]; 48 h, Rep1): 100%
- mortality at 100 ppm (Ctenocephalides felis [2]; 48 h, Rep2): 100%
